Source: PMC9929129, “Towards Translation of PqsR Inverse Agonists: From In Vitro Efficacy Optimization to In Vivo Proof‐of‐Principle” (Advanced Science, 2023)
Converted amounts (≈) assume the structure as drawn. Read-outs that look alike come from different tables or passages of the source.

Legend:
[1] = test system: Bronchiectasis clinical isolates, PA14 and PAO1; experiment: Antimicrobial minimal inhibitory concentrations (MIC), microdilution
[2] = target: T1, PqsR (Pseudomonas aeruginosa, UniProt Q9I4X0); settings: cited from earlier work
T1 construct: expressed in transfected cells; host or cells: Escherichia coli DH5α with plasmid pEAL08-2
T1 sequence (Q9I4X0 whole entry): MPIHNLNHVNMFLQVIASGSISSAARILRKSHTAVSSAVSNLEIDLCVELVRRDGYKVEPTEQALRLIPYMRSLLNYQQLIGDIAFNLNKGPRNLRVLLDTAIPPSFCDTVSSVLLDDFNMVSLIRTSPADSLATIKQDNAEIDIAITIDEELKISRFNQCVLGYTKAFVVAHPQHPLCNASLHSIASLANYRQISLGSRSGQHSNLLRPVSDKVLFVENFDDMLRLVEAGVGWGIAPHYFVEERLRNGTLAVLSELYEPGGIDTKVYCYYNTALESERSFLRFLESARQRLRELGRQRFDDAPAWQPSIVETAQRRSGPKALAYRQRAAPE

[3] = test system: Pseudomonas aeruginosa PA14; design: method as in PMID 31709767; settings: previously published hit; read-out: IC50 Pyocyanin; cited from earlier work
[4] = Kinetic turbidimetric aqueous solubility; settings: PBS buffer, kinetic from dmso stock
[5] = Metabolic stability in mouse liver microsomes (MLM)
Experimental: 1.3.2 Metabolic-Stability Tests in Mouse Liver Microsomes (MLM).
Phase I metabolic stability was evaluated by incubating the compound (1 μM) with 0.5 mg/mL MLM (Corning) and 1 mM NADPH at 37 °C for 0, 5, 10, 15 and 30 min. The enzymatic activity of the MLM was determined by measuring the metabolic stability of Verapamil, Diphenhydramine and Benzydamine (1 μM each).
The half-life (t1/2) was determined by analyzing the concentrations of the compounds at the different time points by HPLC-MS/MS.

[6] = test system: Pseudomonas aeruginosa PA14; experiment: Pyocyanin assay in Pseudomonas aeruginosa; type: cell-based; settings: PA14, 16 h, read-out: IC50 Pyocyanin
Experimental: 1.2.2 Pyocyanin assay in Pseudomonas aeruginosa
Inhibition of pyocyanin biosynthesis of compounds was measured spectrophotometrically as previously described.[2] Pseudomonas aeruginosa PA14 was grown in rich medium for 16 h under agitation with and without compound. Pyocyanin was extracted from cultures with chloroform, then re-extracted with 0.2 M HCl and quantified photometrically (520 nm). IC50 values were determined from dose-response curves of compounds using at least six different concentrations and fitting with non-linear regression analysis (OriginPro 2017–2020, Originlab Corporation). […]

[7] = strain column 1 of 16 (strain heads not assignable)

Row | Compound | solubility kinetic at 5 min [4] [µM] | half-life at 1 μM [5] [min] | IC50 [6] [µM] | further results
1 | CC(C)(O/N=C(\C(=O)N[C@@H]1C(=O)N2C(C(=O)[O-])=C(C[n+]3ccccc3)CS[C@H]12)c1csc(N)n1)C(=O)O [Ceftazidim] |  |  |  | MIC [1, 7]: 2 mg/L (≈ 3.66 µM); MIC ([1]; strain column 2 of 16): 4 mg/L (≈ 7.32 µM); MIC ([1]; strain column 3 of 16): 2 mg/L (≈ 3.66 µM); MIC ([1]; strain column 4 of 16): ≤ 0.5 mg/L; MIC ([1]; strain column 5 of 16): 2 mg/L (≈ 3.66 µM); MIC ([1]; strain column 6 of 16): 1 mg/L (≈ 1.83 µM); MIC ([1]; strain column 7 of 16): ≤ 0.5 mg/L; MIC ([1]; strain column 8 of 16): 4 mg/L (≈ 7.32 µM); MIC ([1]; strain column 9 of 16): ≤ 0.5 mg/L; MIC ([1]; strain column 10 of 16): 16 mg/L (≈ 29.3 µM); MIC ([1]; strain column 11 of 16): ≤ 0.5 mg/L; MIC ([1]; strain column 12 of 16): 2 mg/L (≈ 3.66 µM); MIC ([1]; strain column 13 of 16): ≤ 0.5 mg/L; MIC ([1]; strain column 14 of 16): 4 mg/L (≈ 7.32 µM); MIC ([1]; strain column 15 of 16): 4 mg/L (≈ 7.32 µM); MIC ([1]; strain column 16 of 16): 2 mg/L (≈ 3.66 µM)
2 | Nc1cc(NCc2ccc(F)cc2)cc(C(F)(F)F)n1 [Compound 1] |  |  |  | IC50 ([2]; read-out: IC50 PqsR, previously published hit): 2.31 µM; IC50 ([2]; read-out: IC50 toward PqsR in heterologous lacZ reporter gene assay in E. coli): 2.3 µM; IC50 [3]: 107 µM
3 | Fc1ccc(CNc2ccnc(C(F)(F)F)c2)cc1 [Compound 2] | > 200 | 54 | 176 ± 47.4 | 
4 | FC(F)(F)c1cc(NCc2ccc(Cl)cc2)ccn1 [Compound 3] | > 200 | 44 | 19 ± 1.2 | 
5 | FC(F)(F)c1cc(NCc2ccc(Br)cc2)ccn1 [Compound 4] | > 200 | 61 | 14.4 ± 1.6 | 
6 | FC(F)(F)c1cc(NCc2cccc(Br)c2)ccn1 [Compound 5] | > 200 | 20 | 71.4 ± 27.2 | 
7 | FC(F)(F)c1cc(NCc2ccccc2Br)ccn1 [Compound 6] | > 200 | 4 | 126 ± 10.6 | 
8 | FC(F)(F)c1cc(NCc2ccc(-c3ccc(Cl)cc3)cc2)ccn1 [Compound 7] | 10 (≈ 3.63 µg/mL) | > 40 | 0.449 ± 0.074 | 
9 | FC(F)(F)c1cc(NCc2ccc(-c3ccc(Cl)cc3)nc2)ccn1 [Compound 8] | 38.9 (≈ 14.2 µg/mL) | 50 | 3.3 ± 1.3 | 
10 | FC(F)(F)c1cc(NCc2ccc(-c3ccc(Cl)cc3)cn2)ccn1 [Compound 9] | 26.6 (≈ 9.68 µg/mL) | 57 | 2.9 ± 3.9 | 
11 | FC(F)(F)c1cc(NCc2ccc(-c3ccc(Cl)cn3)cn2)ccn1 [Compound 10] | > 200 | 75 | 35.1 ± 27.5 | 
12 | FC(F)(F)c1cc(NCc2ccc(-c3ccc(Cl)nc3)cn2)ccn1 [Compound 11] | 161 (≈ 58.6 µg/mL) | > 480 | 7.2 ± 4.6 | 
13 | FC(F)(F)c1cc(OCc2ccc(-c3ccc(Cl)nc3)cn2)ccn1 [Compound 12] | 48.1 (≈ 17.6 µg/mL) | 74 | > 20 | 
14 | FC(F)(F)c1cc(SCc2ccc(-c3ccc(Cl)nc3)cn2)ccn1 [Compound 13] | 42.3 (≈ 16.2 µg/mL) | 6 | 3.1 ± 0.9 | 
15 | COc1ccc(-c2ccc(CNc3ccnc(C(F)(F)F)c3)nc2)cn1 [Compound 14] | > 200 | 77 | 2.9 ± 0.8 | 
16 | Cc1cc(-c2ccc(CNc3ccnc(C(F)(F)F)c3)nc2)cnc1Cl [Compound 15] | 112 (≈ 42.6 µg/mL) | < 5 | 1.9 ± 0.3 | 
17 | FC(F)(F)c1cc(NCc2ccc(-c3cnc(Cl)c(C(F)(F)F)c3)cn2)ccn1 [Compound 16] | 101 (≈ 43.7 µg/mL) | 384 | 2.1 ± 0.4 | 
18 | FC(F)(F)c1cc(NCc2ccc(-c3cnc(Cl)c(Cl)c3)cn2)ccn1 [Compound 17] | 76.2 (≈ 30.4 µg/mL) | 45 | 0.802 ± 0.2 | 
19 | COc1ncc(-c2ccc(CNc3ccnc(C(F)(F)F)c3)nc2)cc1Cl [Compound 18] | 42.4 (≈ 16.7 µg/mL) | 2 | 1.5 ± 0.2 | 
20 | FC(F)(F)c1cc(NCc2ccc(-c3ccc(Oc4ccccc4)nc3)cn2)ccn1 [Compound 19] | 25.6 (≈ 10.8 µg/mL) | 35 | 4.2 ± 1.1 | 
21 | FC(F)(F)c1cc(NCc2cnc(-c3ccc(Cl)c(Cl)c3)nc2)ccn1 [Compound 20] | 16.6 (≈ 6.63 µg/mL) | 61 | 0.234 ± 0.057 | 
22 | FC(F)(F)c1cc(NCc2cnc(-c3ccc(Oc4ccccc4)cc3)nc2)ccn1 [Compound 21] | 10.9 (≈ 4.6 µg/mL) | 32 | 0.32 ± 0.11 | 
23 | CC(C)Oc1ccc(-c2ncc(CNc3ccnc(C(F)(F)F)c3)cn2)cc1 [Compound 22] | 41.7 (≈ 16.2 µg/mL) | > 85 | 0.521 ± 0.3 | 
24 | FC(F)(F)c1cc(NCc2cnc(-c3ccc(C4CC4)cc3)nc2)ccn1 [Compound 23] | 16.5 (≈ 6.11 µg/mL) | 3 | 0.591 ± 0.07 | 
25 | CC(C)Oc1ncc(-c2ncc(CNc3ccnc(C(F)(F)F)c3)cn2)cc1Cl [Compound 25] | 37.9 (≈ 16.1 µg/mL) | > 480 | 0.523 ± 0.05 | 
26 | Colistin |  |  |  | MIC [1, 7]: 2 mg/L; MIC ([1]; strain column 2 of 16): 2 mg/L; MIC ([1]; strain column 3 of 16): 1 mg/L; MIC ([1]; strain column 4 of 16): ≤ 0.5 mg/L; MIC ([1]; strain column 5 of 16): 1 mg/L; MIC ([1]; strain column 6 of 16): 2 mg/L; MIC ([1]; strain column 7 of 16): 1 mg/L; MIC ([1]; strain column 8 of 16): 2 mg/L; MIC ([1]; strain column 9 of 16): 2 mg/L; MIC ([1]; strain column 10 of 16): 1 mg/L; MIC ([1]; strain column 11 of 16): 1 mg/L; MIC ([1]; strain column 12 of 16): 2 mg/L; MIC ([1]; strain column 13 of 16): 1 mg/L; MIC ([1]; strain column 14 of 16): 1 mg/L; MIC ([1]; strain column 15 of 16): 1 mg/L; MIC ([1]; strain column 16 of 16): 2 mg/L
